Data published in patent US8952169B2 (Genentech, Inc., priority 2012, dated 2015).
pIC50: −log10 of the molar value.

Molecular target: hNav1.7 (Homo sapiens (Human), UniProt Q15858)
Experiment: Tritiated aryl sulfonamide binding to membranes from cells expressing hNav1.7 and the β1 subunit (competitive binding)
Details: membranes with hNav1.7 and β1 subunit; [3H]compound displacement, 18 h, room temperature; read-out: NaV1.7 395 Memb Binding (IC50)
Method: Tritiated Aryl Sulfonamide Binding to Membranes Isolated from Cells that Heterologously Express hNav1.7 and the β1 Subunit
Preparation of membranes containing recombinantly expressed sodium channels: Frozen recombinant cell pellets were thawed on ice and diluted to 4 times the cell pellet weight with ice cold 50 mM Tris HCl, pH 7.4 buffer. The cell suspensions were homogenized on ice using a motorized glass dounce homogeniser. Homogenates were further diluted 8.4 times with ice cold 50 mM Tris HCl, pH 7.4 buffer and then centrifuged at 200×g at 4° C. for 15 min. The supernatants were collected and centrifuged at 10000×g at 4° C. for 50 min. The pellets were then re-suspended in 100 mM NaCl, 20 mM Tris HCl, pH 7.4 buffer containing 1% v/v protease inhibitors (Calbiochem) and re-homogenized on ice. The homogenized membranes were then processed through a syringe equipped with a 26 gauge needle. Protein concentrations were determined by Bradford Assay and the membranes were stored at −80° C.
Radioligand Binding Studies: Saturation experiments. A representative compound of formula (I) was tritiated. Three tritiums were incorporated in place of methyl hydrogens to generate [^3H]compound. Binding of this radioligand was preformed in 5 mL borosilicate glass test tubes at room temperature. Binding was initiated by adding membranes to increasing concentrations of [^3H]compound in 100 mM NaCl, 20 mM Tris HCl, pH 7.4 buffer containing 0.01% w/v bovine serum albumin (BSA) for 18 h. Non-specific binding was determined in the presence of 1 μM unlabelled compound. After 18 h, the reactants were filtered through GF/C glass fiber filters presoaked in 0.5% w/v polyethylene imine. […] [^3H]compound bound to filters was quantified by liquid scintillation counting.
Competitive binding experiments. Binding reactions were preformed in 96-well polypropylene plates at room temperature for 18 h. In 360 μL, membranes were incubated with 100 μM [^3H]compound and increasing concentrations of Test Compound. Non-specific binding was defined in the presence of 1 μM unlabelled compound. Reactions were transferred and filtered through 96-well glass fiber/C filter plates presoaked with 0.5% polyethylene imine. The filtered reactions were washed 5 times with 200 L ice cold buffer containing 0.25% BSA. Bound radioactivity was determined by liquid scintillation counting.
Data Analysis: For saturation experiments, non-specific binding was subtracted from total binding to provide specific binding and these values were recalculated in terms of pmol ligand bound per mg protein. Saturation curves were constructed and dissociation constants were calculated using the single site ligand binding model: Beq=(Bmax*X)/(X+Kd), where Beq is the amount of ligand bound at equilibrium, Bmax is the maximum receptor density, Kd is the dissociation constant for the ligand, and X is the free ligand concentration.

Sequence of hNav1.7 (Q15858 whole entry, looked up): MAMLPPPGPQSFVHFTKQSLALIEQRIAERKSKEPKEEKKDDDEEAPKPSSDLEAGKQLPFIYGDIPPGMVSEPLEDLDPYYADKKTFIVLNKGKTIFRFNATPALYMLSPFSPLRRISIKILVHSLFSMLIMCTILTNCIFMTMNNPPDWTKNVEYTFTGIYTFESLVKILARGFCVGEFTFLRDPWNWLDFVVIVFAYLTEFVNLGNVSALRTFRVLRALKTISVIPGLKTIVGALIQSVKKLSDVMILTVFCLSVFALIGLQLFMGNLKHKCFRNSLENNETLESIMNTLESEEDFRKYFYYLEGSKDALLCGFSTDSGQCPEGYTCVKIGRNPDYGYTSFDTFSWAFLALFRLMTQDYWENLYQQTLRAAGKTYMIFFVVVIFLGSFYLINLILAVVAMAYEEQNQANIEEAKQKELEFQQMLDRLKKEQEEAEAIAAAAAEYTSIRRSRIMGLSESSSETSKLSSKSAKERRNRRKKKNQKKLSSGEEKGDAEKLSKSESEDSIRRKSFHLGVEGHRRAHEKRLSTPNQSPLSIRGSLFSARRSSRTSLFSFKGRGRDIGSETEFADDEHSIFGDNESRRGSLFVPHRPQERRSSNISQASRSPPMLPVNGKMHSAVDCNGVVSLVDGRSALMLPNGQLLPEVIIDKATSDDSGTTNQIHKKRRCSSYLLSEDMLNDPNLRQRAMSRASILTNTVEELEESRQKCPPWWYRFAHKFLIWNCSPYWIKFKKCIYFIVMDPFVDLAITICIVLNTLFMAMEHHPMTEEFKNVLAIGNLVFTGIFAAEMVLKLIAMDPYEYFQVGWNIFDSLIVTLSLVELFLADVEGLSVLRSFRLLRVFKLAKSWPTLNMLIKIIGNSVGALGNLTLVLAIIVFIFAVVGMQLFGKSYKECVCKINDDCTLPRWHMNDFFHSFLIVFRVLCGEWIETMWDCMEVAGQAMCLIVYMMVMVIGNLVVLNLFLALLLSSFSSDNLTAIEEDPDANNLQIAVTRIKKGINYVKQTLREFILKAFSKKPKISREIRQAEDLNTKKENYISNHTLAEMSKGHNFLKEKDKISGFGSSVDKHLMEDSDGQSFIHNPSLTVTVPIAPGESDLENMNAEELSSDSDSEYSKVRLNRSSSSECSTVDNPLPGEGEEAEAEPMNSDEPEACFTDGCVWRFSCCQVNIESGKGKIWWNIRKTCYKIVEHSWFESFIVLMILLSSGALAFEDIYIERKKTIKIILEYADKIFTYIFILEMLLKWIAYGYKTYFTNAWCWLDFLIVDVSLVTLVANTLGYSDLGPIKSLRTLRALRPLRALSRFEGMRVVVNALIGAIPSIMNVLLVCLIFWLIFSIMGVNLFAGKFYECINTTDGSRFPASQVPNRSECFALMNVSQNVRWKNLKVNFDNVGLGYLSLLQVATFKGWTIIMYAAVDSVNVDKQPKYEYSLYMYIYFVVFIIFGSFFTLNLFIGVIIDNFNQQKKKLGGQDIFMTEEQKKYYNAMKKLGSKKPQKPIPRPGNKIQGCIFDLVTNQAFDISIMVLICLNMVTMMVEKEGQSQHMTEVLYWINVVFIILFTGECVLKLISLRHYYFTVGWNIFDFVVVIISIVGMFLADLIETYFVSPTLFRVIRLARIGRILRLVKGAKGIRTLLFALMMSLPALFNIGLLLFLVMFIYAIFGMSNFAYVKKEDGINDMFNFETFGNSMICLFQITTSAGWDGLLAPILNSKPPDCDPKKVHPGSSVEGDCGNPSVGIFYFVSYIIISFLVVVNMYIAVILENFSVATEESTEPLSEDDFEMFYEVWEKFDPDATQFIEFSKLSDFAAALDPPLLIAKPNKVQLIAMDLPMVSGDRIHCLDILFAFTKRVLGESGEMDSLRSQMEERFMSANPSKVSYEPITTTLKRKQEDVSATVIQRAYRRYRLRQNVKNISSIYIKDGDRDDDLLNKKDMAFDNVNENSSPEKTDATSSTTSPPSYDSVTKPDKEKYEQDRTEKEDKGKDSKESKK
Sequence of hNav1.7 (Q07699 whole entry partner, looked up): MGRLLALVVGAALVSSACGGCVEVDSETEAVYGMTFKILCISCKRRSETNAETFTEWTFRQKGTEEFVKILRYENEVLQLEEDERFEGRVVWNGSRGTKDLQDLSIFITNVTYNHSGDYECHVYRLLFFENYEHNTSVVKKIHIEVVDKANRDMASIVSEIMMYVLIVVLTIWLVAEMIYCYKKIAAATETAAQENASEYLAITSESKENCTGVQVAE

SMILES | pIC50
CN(C)S(=O)(=O)NC(=O)c1cc(Cl)c(OCC2CCCCC2)cc1F | 6.49
CN(C)S(=O)(=O)NC(=O)c1cc(Cl)c(OCC2CCCC2)cc1F | 6.17
CS(=O)(=O)NC(=O)c1cc(Cl)c(OCC2(C(F)(F)F)CC2)cc1F | 6.22
CS(=O)(=O)NC(=O)c1cc(Cl)c(OC[C@H]2CC[C@H](C(F)(F)F)CC2)cc1F | 6.80
COc1ncccc1-c1cc(C(=O)NS(C)(=O)=O)ccc1OCC12CC3CC(CC(C3)C1)C2 | 6.10
CS(=O)(=O)NC(=O)c1cc(Cl)c(COc2ccc3c(c2)CCCC3)cc1F | 7.07
CC1(C)C(COc2ccc(C(=O)NS(C)(=O)=O)cc2Cl)C1(C)C | 6.74
CS(=O)(=O)NC(=O)c1cc(Cl)c(OCC2CCCCCC2)cc1F | 7.36
CCCCCC12CCC(COc3cc(F)c(C(=O)NS(C)(=O)=O)cc3Cl)(CC1)CC2 | 8.05
CC1(C)[C@H]2CC[C@](C)(C2)[C@H]1Oc1cc(F)c(C(=O)NS(C)(=O)=O)cc1Cl | 5.15
CC(C)[C@H]1CC[C@H](C)C[C@@H]1Oc1cc(F)c(C(=O)NS(C)(=O)=O)cc1Cl | 5.88
CC(C)[C@H]1CC[C@H](Oc2cc(F)c(C(=O)NS(C)(=O)=O)cc2Cl)CC1 | 7.24
CC1(C)CCCC(Oc2cc(F)c(C(=O)NS(C)(=O)=O)cc2Cl)C1 (stereo not drawn) | 7.03
CC1(C)CCC(Oc2cc(F)c(C(=O)NS(C)(=O)=O)cc2Cl)CC1 | 6.78
CN(C)S(=O)(=O)NC(=O)c1cc(Cl)c(O[C@@H]2C[C@@H]3CC[C@@]2(C)C3(C)C)cc1F | 6.64
CC(C)[C@H]1CC[C@H](Oc2cc(F)c(C(=O)NS(=O)(=O)N(C)C)cc2Cl)CC1 | 6.86
CS(=O)(=O)NC(=O)c1cc(Cl)c(OC2CCC3(CCCCC3)CC2)cc1F | 7.17
CN(C)S(=O)(=O)NC(=O)c1cc(Cl)c(OCCC2CCCCCC2)cc1F | 6.68

SMILES | pIC50
CN(C)S(=O)(=O)NC(=O)c1cc(Cl)c(OC2CCC3(CCCCC3)CC2)cc1F | 6.55
CN(C)S(=O)(=O)NC(=O)c1cc(Cl)c(OC2CCC3(CCCC3)CC2)cc1F | 6.56
CN(C)S(=O)(=O)NC(=O)c1cc(Cl)c(OC2CCC(C(F)(F)F)CC2)cc1F (stereo not drawn) | 5.45
CS(=O)(=O)NC(=O)c1cc(C2CC2)c(OCC23CC4CC(CC(F)(C4)C2)C3)cc1F | 8.52
CS(=O)(=O)NC(=O)c1cc(C2CC2)c(OCC2CCC3(CC2)CC3)cc1F | 8.70
CS(=O)(=O)NC(=O)c1ccc(OCC23CC4CC(CC(F)(C4)C2)C3)cc1F | 5.79
CS(=O)(=O)NC(=O)c1ccc(OCC2CCC3(CC2)CC3)cc1F | 6.82
CS(=O)(=O)NC(=O)c1cc(Cl)c(O[C@H]2C3CC4CC2C[C@](F)(C4)C3)cc1F | 6.92
O=C(NS(=O)(=O)N1CCC1)c1cc(C2(O)COC2)c(OCC23CC4CC(CC(C4)C2)C3)cc1F | 7.15
CNS(=O)(=O)NC(=O)c1ccc(C2C3CC4CC(C3)CC2C4)c(Cl)c1 (stereo not drawn) | 5.77
CS(=O)(=O)NC(=O)c1cnc(OCC23CC4(F)CC(F)(CC(F)(C4)C2)C3)c(Cl)c1 | 4.67
CNS(=O)(=O)NC(=O)c1cc(C2CC2)c(OCC2CCCCC2)cc1F | 7.92
O=C(NS(=O)(=O)CCO)c1cc(C2CC2)c(OCC2CCCCC2)cc1F | 7.18
CS(=O)(=O)NC(=O)c1cc(Cl)c(OCC23CC4CC(CC(C4)C2)C3)c(Cl)c1 | 6.27
O=C(NS(=O)(=O)N1CC[C@H](O)C1)c1cc(C2CC2)c(OCC2CCCCC2)cc1F | 6.80
CC(O)c1cc(C(=O)NS(=O)(=O)N2CCC2)c(F)cc1OCC12CC3CC(CC(C3)C1)C2 (stereo not drawn) | 7.92
CS(=O)(=O)NC(=O)c1cc(Cl)c(OCC2CCC3(CCC3)CC2)cc1F | 7.77
CS(=O)(=O)NC(=O)c1cc(Cl)c(OCC2CCC(F)(F)CC2)cc1F | 6.25

Now from value to compound:

pIC50 | SMILES
7.28 | CS(=O)(=O)NC(=O)c1cc(Cl)c(OCC23CC4CC(CC(Cl)(C4)C2)C3)cc1F
7.36 | CC1(C)[C@H]2CC[C@@H](COc3cc(F)c(C(=O)NS(C)(=O)=O)cc3Cl)[C@@H]1C2
7.77 | CS(=O)(=O)NC(=O)c1cc(Cl)c(OCC2C3CC4CC(C3)CC2C4)cc1F (stereo not drawn)
6.93 | CC1(C)[C@H]2CC=C(COc3cc(F)c(C(=O)NS(C)(=O)=O)cc3Cl)[C@@H]1C2
7.10 | CS(=O)(=O)NC(=O)c1cc(Cl)c(OCC2CC3CCC2C3)cc1F (stereo not drawn)
6.78 | CS(=O)(=O)NC(=O)c1cc(Cl)c(O[C@@H]2C[C@@H]3CC[C@H]2C3)cc1F
6.31 | CS(=O)(=O)NC(=O)c1cc(Cl)c(OC2CC3CCC2C3)cc1F (stereo not drawn)
6.69 | CS(=O)(=O)NC(=O)c1cc(Cl)c(OC2CC3CC2C2CCCC32)cc1F (stereo not drawn)
6.55 | CN(C)S(=O)(=O)NC(=O)c1cc(Cl)c(OC2C3CC4CC2CC(Cl)(C4)C3)cc1F (stereo not drawn) [listing 1 of 2 here]
6.27 | CN(C)S(=O)(=O)NC(=O)c1cc(Cl)c(OCCC2CCCC2)cc1F
6.38 | CN(C)S(=O)(=O)NC(=O)c1cc(Cl)c(OC2C3CC4CC2CC(Cl)(C4)C3)cc1F (stereo not drawn) [listing 2 of 2 here]
6.53 | CN(C)S(=O)(=O)NC(=O)c1cc(Cl)c(OCCCC2CCCCC2)cc1F
6.52 | CN(C)S(=O)(=O)NC(=O)c1cc(Cl)c(OCCCC2CCCC2)cc1F
6.78 | CN(C)S(=O)(=O)NC(=O)c1cc(Cl)c(OCCC23CC4CC(CC(C4)C2)C3)cc1F
7.57 | CS(=O)(=O)NC(=O)c1cc(Cl)c(OCC23CC4CC(C2)C(F)(F)C(C4)C3)cc1F
7.92 | COC12CC3CC(CC(COc4cc(F)c(C(=O)NS(C)(=O)=O)cc4C4CC4)(C3)C1)C2
8.00 | Cc1cc(C(=O)NS(=O)(=O)N2CCC2)c(F)cc1OCC12CC3CC(CC(C3)C1)C2

pIC50 | SMILES
9.00 | CCS(=O)(=O)NC(=O)c1cc(C2CC2)c(OCC23CC4CC(CC(C4)C2)C3)cc1F
8.52 | CC(C)(C)S(=O)(=O)NC(=O)c1cc(C2CC2)c(OCC23CC4CC(CC(C4)C2)C3)cc1F
7.92 | COCCNS(=O)(=O)NC(=O)c1cc(C2CC2)c(OCC23CC4CC(CC(C4)C2)C3)cc1F
8.40 | CS(=O)(=O)NC(=O)c1cc(C2CC2)c(OCC2(F)C3CC4CC(C3)CC2C4)cc1F (stereo not drawn)
6.00 | COCCS(=O)(=O)NC(=O)c1cc(Cl)c(OCC2(C#N)C3CC4CC(C3)CC2C4)cc1F (stereo not drawn)
6.06 | CNS(=O)(=O)NC(=O)c1cc(Cl)c(OCC2(C#N)C3CC4CC(C3)CC2C4)cc1F (stereo not drawn)
6.51 | CS(=O)(=O)NC(=O)c1cc(Cl)c(OCC2(C#N)C3CC4CC(C3)CC2C4)cc1F (stereo not drawn)
8.51 | CS(=O)(=O)NC(=O)c1cc(C2CC2)c(OCC2C3CC4CC(C3)CC2C4)cc1F (stereo not drawn)
8.30 | COCCS(=O)(=O)NC(=O)c1cc(C2CC2)c(OCC2C3CC4CC(C3)CC2C4)cc1F (stereo not drawn)
8.10 | CS(=O)(=O)NC(=O)c1cc(I)c(OCC23CC4CC(CC(C4)C2)C3)cc1F
7.92 | CCOCCS(=O)(=O)NC(=O)c1cc(C2CC2)c(OCC23CC4CC(CC(C4)C2)C3)cc1F
7.66 | COCCCS(=O)(=O)NC(=O)c1cc(C2CC2)c(OCC23CC4CC(CC(C4)C2)C3)cc1F
7.40 | CC(C)OCCS(=O)(=O)NC(=O)c1cc(C2CC2)c(OCC23CC4CC(CC(C4)C2)C3)cc1F
7.92 | N#CC1CN(S(=O)(=O)NC(=O)c2cc(C3CC3)c(OCC34CC5CC(CC(C5)C3)C4)cc2F)C1
7.66 | CS(=O)(=O)NC(=O)c1cc(C2CC2)c(OCC2(C#N)C3CC4CC(C3)CC2C4)cc1F (stereo not drawn)
7.29 | CN(C)S(=O)(=O)NC(=O)c1cc(Cl)c(OCC2C3CC4CC(C3)CC2C4)cc1F (stereo not drawn)
